# Test results reported in ChEMBL document CHEMBL5331082, “p53 as a potential target for treatment of cancer: A perspective on recent advancements in small molecules with structural insights and SAR studies” (Eur J Med Chem, 2023).
# Key:
# [1] = test system: MDA-MB-231; experiment: Antiproliferative activity against human MDA-MB-231 cells assessed as inhibition of cell growth; type: functional, cell-based
# [2] = test system: MCF7; experiment: Antiproliferative activity against human MCF7 cells assessed as inhibition of cell growth; type: functional, cell-based
# [3] = test system: JEG-3; experiment: Antiproliferative activity against human JEG-3 cells assessed as inhibition of cell growth; type: functional, cell-based
# [4] = test system: U-87 MG; experiment: Antiproliferative activity against human U87 cells assessed as inhibition of cell growth; type: functional, cell-based, U-87MG ATCC
# [5] = test system: A549; experiment: Antiproliferative activity against human A549 cells assessed as inhibition of cell growth; type: functional, cell-based
# [6] = test system: HL-60; experiment: Antiproliferative activity against human HL-60 cells assessed as inhibition of cell growth; type: functional, cell-based
# [7] = test system: MCF7; experiment: Antiproliferative activity against human MCF7 cells assessed as inhibition of cell growth by MTT assay; type: functional, cell-based
# [8] = test system: A549; experiment: Induction of apoptosis in human A549 cells assessed as increase in p53 level; type: functional
# [9] = test system: MDA-MB-231; experiment: Induction of apoptosis in human MDA-MB-231 cells assessed as increase in p53 level; type: functional
# [10] = test system: PC-3; experiment: Induction of apoptosis in human PC-3 cells assessed as increase in p53 level; type: functional
# [11] = test system: PC-3; experiment: Antiproliferative activity against human PC-3 cells assessed as inhibition of cell growth; type: functional, cell-based
# [12] = test system: HCT-116; experiment: Antiproliferative activity against human HCT-116 cells assessed as inhibition of cell growth; type: functional, cell-based
# [13] = test system: HCT-116; experiment: Induction of apoptosis in human HCT-116 cells assessed as increase in p53 level; type: functional
# [14] = test system: HCT-116; experiment: Antiproliferative activity against human HCT-116 cells assessed as inhibition of cell growth by MTT assay; type: functional, cell-based
# [15] = test system: HeLa; experiment: Antiproliferative activity against human HeLa cells assessed as inhibition of cell growth by MTT assay; type: functional, cell-based
# [16] = test system: U-87 MG; experiment: Antiproliferative activity against human U-87 MG cells assessed as inhibition of cell growth by CCK-8 assay; type: functional, cell-based, U-87MG ATCC
# [17] = test system: SH-SY5Y; experiment: Antiproliferative activity against human SH-SY5Y cells assessed as inhibition of cell growth by CCK-8 assay; type: functional, cell-based
# [18] = molecular target: E3 ubiquitin-protein ligase Mdm2 (Homo sapiens) (UniProt Q00987); experiment: Binding affinity to MDM2 (unknown origin) at 10 uM relative to control
# [19] = test system: HCT-116; experiment: Antiproliferative activity against human HCT-116 cells assessed as inhibition of cell growth by CCK-8 assay; type: functional, cell-based
# [20] = molecular target: T1, Tumour suppressor p53/oncoprotein Mdm2 (Homo sapiens, UniProt P04637+Q00987); experiment: Binding affinity to MDM2/p53 interaction (unknown origin) assessed as inhibition constant; type: protein assay
# [21] = molecular target: Tumour suppressor protein p53/Mdm4 (Homo sapiens, UniProt O15151+P04637); experiment: Binding affinity to MDM4/p53 interaction (unknown origin) assessed as inhibition constant; type: protein assay
# [22] = molecular target: E3 ubiquitin-protein ligase Mdm2 (Homo sapiens) (UniProt Q00987); experiment: Binding affinity to MDM2 (unknown origin) assessed as change in Gibbs free energy
# [23] = test system: PANC-1; experiment: Antiproliferative activity against human PANC-1 cells assessed as inhibition of cell growth by MTT assay; type: functional, cell-based
# [24] = test system: HT-29; experiment: Antiproliferative activity against human HT-29 cells assessed as inhibition of cell growth by MTT assay; type: functional, cell-based
# [25] = test system: A549; experiment: Antiproliferative activity against human A549 cells assessed as inhibition of cell growth by MTT assay; type: functional, cell-based
# [26] = test system: LNCaP; experiment: Antiproliferative activity against human LNCaP cells expressing p53 assessed as inhibition of cell growth by MTT assay; type: functional, cell-based
# [27] = test system: PC-3; experiment: Antiproliferative activity against human PC-3 cells assessed as inhibition of cell growth by MTT assay; type: functional, cell-based
# [28] = molecular target: T1, Tumour suppressor p53/oncoprotein Mdm2; experiment: Inhibition of MDM2/p53 interaction (unknown origin); type: protein assay
# [29] = test system: K562; experiment: Antiproliferative activity against human K562 cells assessed as inhibition of cell growth; type: functional, cell-based
# Chain of E3 ubiquitin-protein ligase Mdm2 (Homo sapiens) (Q00987 whole entry, looked up): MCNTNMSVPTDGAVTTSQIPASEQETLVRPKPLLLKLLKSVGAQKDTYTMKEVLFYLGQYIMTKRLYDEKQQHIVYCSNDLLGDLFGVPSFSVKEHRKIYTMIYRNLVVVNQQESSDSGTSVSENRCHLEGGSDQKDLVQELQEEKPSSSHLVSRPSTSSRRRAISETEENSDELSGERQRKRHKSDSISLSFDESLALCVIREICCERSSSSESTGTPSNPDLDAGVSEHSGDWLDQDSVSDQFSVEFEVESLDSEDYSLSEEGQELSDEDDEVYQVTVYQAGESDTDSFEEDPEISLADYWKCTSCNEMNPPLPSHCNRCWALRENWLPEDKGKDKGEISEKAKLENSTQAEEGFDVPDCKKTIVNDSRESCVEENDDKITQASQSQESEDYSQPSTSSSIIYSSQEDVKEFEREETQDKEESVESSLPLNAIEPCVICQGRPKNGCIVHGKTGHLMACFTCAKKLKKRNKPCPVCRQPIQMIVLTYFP
# T1 sequence (P04637 whole entry): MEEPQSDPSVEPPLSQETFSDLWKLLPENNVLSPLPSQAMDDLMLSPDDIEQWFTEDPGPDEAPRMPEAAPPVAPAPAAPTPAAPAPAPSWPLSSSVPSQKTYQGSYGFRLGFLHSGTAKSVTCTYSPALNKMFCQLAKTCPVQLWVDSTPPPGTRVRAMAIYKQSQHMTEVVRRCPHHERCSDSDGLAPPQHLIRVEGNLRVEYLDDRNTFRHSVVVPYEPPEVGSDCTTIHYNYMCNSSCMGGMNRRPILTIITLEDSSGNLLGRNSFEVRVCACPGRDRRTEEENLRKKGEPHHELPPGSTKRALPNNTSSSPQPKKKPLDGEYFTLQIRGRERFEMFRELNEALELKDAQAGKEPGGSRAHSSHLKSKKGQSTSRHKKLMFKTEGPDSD
# T1 sequence (Q00987 whole entry): as the sequence (Q00987 whole entry, looked up) above
# Chain of Tumour suppressor protein p53/Mdm4 (P04637 whole entry): as the sequence (P04637 whole entry) above
# Chain of Tumour suppressor protein p53/Mdm4 (O15151 whole entry): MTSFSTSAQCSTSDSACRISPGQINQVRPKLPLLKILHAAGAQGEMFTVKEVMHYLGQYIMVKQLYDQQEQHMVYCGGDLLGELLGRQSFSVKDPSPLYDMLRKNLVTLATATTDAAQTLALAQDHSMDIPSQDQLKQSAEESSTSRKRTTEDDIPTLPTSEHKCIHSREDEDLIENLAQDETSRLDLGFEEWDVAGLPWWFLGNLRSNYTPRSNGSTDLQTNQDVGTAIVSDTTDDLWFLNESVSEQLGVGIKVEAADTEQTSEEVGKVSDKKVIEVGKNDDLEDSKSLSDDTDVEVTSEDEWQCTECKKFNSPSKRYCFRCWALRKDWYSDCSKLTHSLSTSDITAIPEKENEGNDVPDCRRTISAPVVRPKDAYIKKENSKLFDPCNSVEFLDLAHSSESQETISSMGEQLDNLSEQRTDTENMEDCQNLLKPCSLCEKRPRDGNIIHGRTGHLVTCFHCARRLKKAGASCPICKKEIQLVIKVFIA
smiles,measurement,setting,value
C[C@@H]1CN(C)[C@]2(C(=O)N(CN3CCSCC3)c3ccccc32)[C@@]12CCC/C(=C\c1ccccc1)C2=O,IC50,[1],31 µg/mL
same,IC50,[2],31 µg/mL
same,IC50,[3],31 µg/mL
O=C(Nc1cccc(Cl)c1)Sc1nnc(-c2ccc(Cl)cc2)n1-c1ccccc1,IC50,[4],4.15 µM
same,IC50,[5],3.85 µM
same,IC50,[6],17.5 µM
CN1[C@H](c2ccc(Cl)cc2)[C@@]2(C[C@]13C(=O)Nc1ccc(Br)cc13)NC(=O)N(c1ccc(F)c(Cl)c1)C2=O,IC50,[7],1.3 µM
O=C1/C(=C/c2ccc(Br)cc2)CCC[C@]12[C@@H]1CCCN1[C@@]1(C(=O)Nc3ccccc31)[C@H]2c1ccc(Br)cc1,IC50,[2],15.5 µM
O=c1[nH]cc(F)c(=O)[nH]1 [FLUOROURACIL],IC50,[2],78.3 µM
C[C@@H]1CN(C)[C@]2(C(=O)N(CN3CCCC3)c3ccccc32)[C@@]12CCC/C(=C\c1ccccc1)C2=O,IC50,[1],31 µg/mL
same,IC50,[2],31 µg/mL
same,IC50,[3],31 µg/mL
O=C(c1nc2ccccc2[nH]1)[C@H]1[C@H](c2ccccc2)C2CC3CCCCC3N2[C@]12C(=O)Nc1ccc(Cl)cc12 (stereo partly drawn),Activity,[8],34.31%
same,IC50,[1],2.4 µM
same,Activity,[9],51.51%
same,Activity,[10],57.53%
same,IC50,[5],7.81 µM
same,IC50,[11],3.4 µM
same,IC50,[12],7.24 µM
same,Activity,[13],49.83%
Cc1cc(S(=O)(=O)/N=C2/NCCN2Cc2ccc(C(F)(F)F)cc2)c(SCc2nc(N)nc(N3CCN(c4cccc(F)c4)CC3)n2)cc1Cl,IC50,[7],4.6 µM
same,IC50,[14],4.6 µM
same,IC50,[15],4.6 µM
O=C1NC(O)(c2ccc(Cl)cc2)C(c2ccc(Cl)cc2)=C1c1ccc(Cl)cc1 (stereo not drawn),IC50,[16],0.93 µM
same,IC50,[17],1.48 µM
same,Activity,[18],97%
same,IC50,[19],0.59 µM
O=C1/C(=C/c2cccc(Cl)c2)c2ccccc2N1S(=O)(=O)c1cccc(Cl)c1,IC50,[5],12.5 µM
same,IC50,[2],6.17 µM
same,Ki,[20],7.24 µM
same,IC50,[12],11.2 µM
same,Ki,[21],0.031 µM
C[C@@H]1[C@@H]2CCCC[C@@H]2N2[C@H]1[C@@H](c1ccccc1)[C@@]1(CCC/C(=C\c3ccccc3)C1=O)[C@@]21C(=O)Nc2ccccc21,IC50,[15],7.1 µM
COc1ccc(-c2nc3sc(-c4ccc(Br)cc4Br)cn3n2)cc1,IC50,[7],1.2 µM
same,deltaG,[22],-7.55 kcal/mol
same,IC50,[23],1.6 µM
same,IC50,[24],1.3 µM
same,IC50,[25],1.4 µM
Cc1cc(S(=O)(=O)/N=C2/NCCN2Cc2cc(C(F)(F)F)cc(C(F)(F)F)c2)c(SCc2nc(N)nc(N3CCN(Cc4ccccc4)CC3)n2)cc1Cl,IC50,[7],4.8 µM
same,IC50,[14],4.8 µM
same,IC50,[15],4.8 µM
COc1ccc([C@@H]2CN(C)[C@@]3(C(=O)Nc4ccccc43)[C@]23N=C(c2ccc(C)cc2)OC3=O)cc1,IC50,[26],1.08 µM
same,IC50,[27],3.21 µM
Cc1cc(S(=O)(=O)/N=C2/NCCN2Cc2cc(C(F)(F)F)cc(C(F)(F)F)c2)c(SCc2nc(N)nc(N3CCN(c4ccccc4)CC3)n2)cc1Cl,IC50,[7],3.6 µM
same,IC50,[14],3.6 µM
same,IC50,[15],3.6 µM
C[C@@H]1[C@@H]2CCCC[C@@H]2N2[C@H]1[C@@H](c1ccccc1)[C@@]1(CCC/C(=C\c3ccccc3)C1=O)[C@@]21C(=O)Nc2cc(Cl)ccc21,IC50,[27],3.7 µM
COc1cc(OC)c(C(=O)/C=C/c2ccc(Br)cc2)c(OCC=C(C)C)c1,IC50,[28],2.1 µM
C[C@@H]1[C@@H]2CCCC[C@@H]2N2[C@H]1[C@@H](c1ccc(F)cc1)[C@@]1(CCC/C(=C\c3ccc(F)cc3)C1=O)[C@@]21C(=O)Nc2cc(Cl)ccc21,IC50,[15],7.2 µM
Cc1cc(S(=O)(=O)/N=C2/NCCN2Cc2ccc(C(F)(F)F)cc2)c(SCc2nc(N)nc(N3CCN(c4cccc(C(F)(F)F)c4)CC3)n2)cc1Cl,IC50,[7],5 µM
same,IC50,[14],5 µM
same,IC50,[15],5 µM
COc1ccc(/C=C2\CCC[C@@]3(C2=O)[C@@H]2CCCN2[C@@]2(C(=O)Nc4ccccc42)[C@H]3c2ccc(OC)cc2)cc1,IC50,[29],13.4 µM
